Measured values reported in patent US11684614B2, “Formulations of hydroxypyridonate actinide/lanthanide decorporation agents” (priority 2017, dated 2023).

Assay: 3,4,3-LI(1,2-HOPO)-excipient compatibility study (visual observation, HPLC purity and impurities on storage)
Format: physicochemical
Conditions: for 3L1O Purity / Total Impurities: n = 1
Protocol: The objective of the analytical study described in this report was to evaluate the interactions between 3,4,3-L1(1,2-HOPO) and selected pharmaceutical excipients under 25° C./60% RH and 40° C./75% RH conditions over eight weeks. Physical appearance and potency of the different samples were assessed at T=0, 2, 4, and 8 weeks through visual observations and high performance liquid chromatography (HPLC) analysis.
The stability of 3,4,3-L1(1,2-HOPO) was tested according to the conditions listed below in TABLE 1.1. A11 test samples were stored throughout the study in 40 mL clear USP Type 1 glass vials (28 mm OD×95 mm height; 24 mm screw cap), wrapped in aluminum foil.
• Test Samples: Each test mixture was prepared by weighing the desired quantity of 3,4,3-L1(1,2-HOPO) and excipient (both screened through sieve #40) into vials. Both ingredients were first mixed using a clean glass rod and then vortexed. At each time interval, one vial was withdrawn from each drug-excipient series along with the corresponding placebo preparation and tested as described below.
b. Sample Characterization • Visual Observation: For each sample solution, visual observation consisted in recording color and physical form.
c. Chromatographic Assay and Purity Assessment • Standard Stock Solutions: For each standard stock solutions, the test article was weighed (200 mg) and dissolved by sonication into 30 mL of diluent (water:acetonitrile=90%:10%). After equilibration at room temperature, the volume of the standard solution was adjusted to 50 mL. Standard stock solutions were prepared in duplicates, working standard solutions were prepared by dilution of each stock with the diluent to the desired concentrations. • Calibration Standards: With each experiment, 5 calibration standard solutions at different concentrations were prepared from stock solutions using the diluent. Concentrations of the calibration standards were between 1.6 and 2.4 mg/mL. […] The vials were then mechanically shaken for 15 minutes, followed by centrifugation of the sample solutions (10,000 rpm, 10 min), and the supernatants were used for the assay. • Placebo Preparation: 25 mL of diluent was added to each of the placebo vial. The vials were then mechanically shaken for 15 minutes, followed by centrifugation of the sample solutions (10,000 rpm, 10 min), and the supernatants were used for the assay. Analytical Method: Instrument: Waters Alliance 2695 liquid chromatography system Column: Agilent, Eclipse XDB-C18, 4.6×150 mm, 5 μm. Mobile Phase A: 0.05% formic acid in 95% H2O: 5% ACN Mobile Phase B: 0.05% formic acid in acetonitrile (ACN)
Column Temperature: 25° C. Flow Rate: 1.0 mL/min. Injection Volume: 10 μL Detection: 250 nm Run Time: 50 min Diluent: 9:1 H2O:ACN Analysis Sequence:
• Suitability Requirements: There should be no interference from the diluent/blank at the retention times of 3,4,3-L1(1,2-HOPO) peaks. The relative standard deviation (% RSD) for five replicate system suitability injections should be below 2.0%. The response factor of the second standard should be within 95-105%. The correlation coefficient (R2) of the system linearity standards should be higher than 0.990. 5. Results

With `O=C(NCCCN(CCCCN(CCCNC(=O)c1cccc(=O)n1O)C(=O)c1cccc(=O)n1O)C(=O)c1cccc(=O)n1O)c1cccc(=O)n1O` [3,4,3-L1(1,2-HOPO)] the “Unknown Impurity RRT 1.27” value (40° C./75% RH, 2 Weeks) was 0.36 % w/w, the “Unknown Impurity RRT 1.3” value (40° C./75% RH, 2 Weeks) was 0.16 % w/w and the “Unknown Impurity RRT 1.39” value (40° C./75% RH, 2 Weeks) was 0.05 % w/w. The “Unknown Impurity RRT 1.41” value (40° C./75% RH, 2 Weeks) was 0.01 % w/w, the “Unknown Impurity RRT 1.46” value (40° C./75% RH, 2 Weeks) was 0.07 % w/w and the “Unknown Impurity RRT 2.31” value (40° C./75% RH, 2 Weeks) was 0.05 % w/w. For the same compound, the “Unknown Impurity RRT 2.59” value (40° C./75% RH, 2 Weeks) was 0.04 % w/w, the “Unknown Impurity RRT 2.8” value (40° C./75% RH, 2 Weeks) was 0.03 % w/w and the “3L1O Purity” value (40° C./75% RH, 2 Weeks) was 98.62 % Area. For the same compound, the “Total Impurities” value (40° C./75% RH, 2 Weeks) was 1.38 % Area, the “Unknown Impurity RRT 0.24” value (40° C./75% RH, 4 weeks) was 0.05 % w/w and the “Unknown Impurity RRT 0.58” value (40° C./75% RH, 4 weeks) was 0.09 % w/w. The “Unknown Impurity RRT 0.6” value (40° C./75% RH, 4 weeks) was 0.06 % w/w, the “Unknown Impurity RRT 0.62” value (40° C./75% RH, 4 weeks) was 0.07 % w/w and the “Unknown Impurity RRT 0.81” value (40° C./75% RH, 4 weeks) was 0.02 % w/w. For the same compound, the “Unknown Impurity RRT 0.87” value (40° C./75% RH, 4 weeks) was 0.16 % w/w, the “Unknown Impurity RRT 0.89” value (40° C./75% RH, 4 weeks) was 0.03 % w/w and the “Unknown Impurity RRT 1.02” value (40° C./75% RH, 4 weeks) was 0.03 % w/w. For the same compound, the “Unknown Impurity RRT 1.11” value (40° C./75% RH, 4 weeks) was 0.06 % w/w, the “Unknown Impurity RRT 1.27” value (40° C./75% RH, 4 weeks) was 0.26 % w/w and the “Unknown Impurity RRT 1.3” value (40° C./75% RH, 4 weeks) was 0.2 % w/w. The “Unknown Impurity RRT 1.39” value (40° C./75% RH, 4 weeks) was 0.74 % w/w, the “Unknown Impurity RRT 1.41” value (40° C./75% RH, 4 weeks) was 0.01 % w/w and the “Unknown Impurity RRT 1.46” value (40° C./75% RH, 4 weeks) was 0.08 % w/w. The “Unknown Impurity RRT 1.72” value (40° C./75% RH, 4 weeks) was 0.09 % w/w, the “Unknown Impurity RRT 2.3” value (40° C./75% RH, 4 weeks) was 0.04 % w/w and the “Unknown Impurity RRT 2.59” value (40° C./75% RH, 4 weeks) was 0.03 % w/w. The “Unknown Impurity RRT 2.79” value (40° C./75% RH, 4 weeks) was 0.02 % w/w, the “3L1O Purity” value (40° C./75% RH, 4 weeks) was 98.63 % Area and the “Total Impurities” value (40° C./75% RH, 4 weeks) was 1.37 % Area. For the same compound, the “Unknown Impurity RRT 0.24” value (40° C./75% RH, 8 Weeks) was 0.34 % w/w, the “Unknown Impurity RRT 0.58” value (40° C./75% RH, 8 Weeks) was 0.2 % w/w and the “Unknown Impurity RRT 0.59” value (40° C./75% RH, 8 Weeks) was 0.16 % w/w. The “Unknown Impurity RRT 0.62” value (40° C./75% RH, 8 Weeks) was 0.18 % w/w, the “Unknown Impurity RRT 0.81” value (40° C./75% RH, 8 Weeks) was 0.05 % w/w and the “Unknown Impurity RRT 0.87” value (40° C./75% RH, 8 Weeks) was 0.18 % w/w. The “Unknown Impurity RRT 0.89” value (40° C./75% RH, 8 Weeks) was 0.32 % w/w, the “Unknown Impurity RRT 0.91” value (40° C./75% RH, 8 Weeks) was 0.11 % w/w and the “Unknown Impurity RRT 0.95” value (40° C./75% RH, 8 Weeks) was 0.04 % w/w. The “Unknown Impurity RRT 1.02” value (40° C./75% RH, 8 Weeks) was 0.09 % w/w, the “Unknown Impurity RRT 1.12” value (40° C./75% RH, 8 Weeks) was 0.05 % w/w and the “Unknown Impurity RRT 1.27” value (40° C./75% RH, 8 Weeks) was 0.4 % w/w. For the same compound, the “Unknown Impurity RRT 1.31” value (40° C./75% RH, 8 Weeks) was 0.01 % w/w, the “Unknown Impurity RRT 1.39” value (40° C./75% RH, 8 Weeks) was 0.08 % w/w and the “Unknown Impurity RRT 1.41” value (40° C./75% RH, 8 Weeks) was 0 % w/w. For the same compound, the “Unknown Impurity RRT 1.46” value (40° C./75% RH, 8 Weeks) was 0.12 % w/w, the “Unknown Impurity RRT 1.72” value (40° C./75% RH, 8 Weeks) was 0.1 % w/w and the “Unknown Impurity RRT 2.31” value (40° C./75% RH, 8 Weeks) was 0.03 % w/w. The “Unknown Impurity RRT 2.6” value (40° C./75% RH, 8 Weeks) was 0.02 % w/w, the “Unknown Impurity RRT 2.8” value (40° C./75% RH, 8 Weeks) was 0.02 % w/w and the “3L1O Purity” value (40° C./75% RH, 8 Weeks) was 97.49 % Area. For the same compound, the “Total Impurities” value (40° C./75% RH, 8 Weeks) was 2.51 % Area, the “Unknown Impurity RRT 0.58” value (Initial (T = 0)) was 0.05 % w/w and the “Unknown Impurity RRT 0.59” value (Initial (T = 0)) was 0.04 % w/w. The “Unknown Impurity RRT 0.62” value (Initial (T = 0)) was 0.04 % w/w, the “Unknown Impurity RRT 0.87” value (Initial (T = 0)) was 0.1 % w/w and the “Unknown Impurity RRT 0.89” value (Initial (T = 0)) was 0.02 % w/w. For the same compound, the “Unknown Impurity RRT 1.03” value (Initial (T = 0)) was 0.21 % w/w, the “Unknown Impurity RRT 1.11” value (Initial (T = 0)) was 0.04 % w/w and the “Unknown Impurity RRT 1.27” value (Initial (T = 0)) was 0.29 % w/w. The “Unknown Impurity RRT 1.3” value (Initial (T = 0)) was 0.21 % w/w, the “Unknown Impurity RRT 1.39” value (Initial (T = 0)) was 0.09 % w/w and the “Unknown Impurity RRT 1.41” value (Initial (T = 0)) was 0.01 % w/w. For the same compound, the “Unknown Impurity RRT 1.46” value (Initial (T = 0)) was 0.11 % w/w, the “Unknown Impurity RRT 2.31” value (Initial (T = 0)) was 0.05 % w/w and the “3L1O Purity” value (Initial (T = 0)) was 98.73 % Area. The “Total Impurities” value (Initial (T = 0)) was 1.27 % Area.
